Columns and labels:
[1] = test system: male spontaneously hypertensive rats (SHR); test: APO-induced penile erectile response in aging SHR with anti-hypertensive and testosterone treatments; format: in vivo, rat; conditions: for number of erections relative to pre-treatment: summary of Example 3; for increase in number of erections two weeks off treatment: third treatment at 68 weeks, previously untreated rats, low salt diet, 30 mg/kg per day
Protocol: Animals: 30-week-old male spontaneously hypertensive rats (Charles River Laboratories, Montreal, Quebec, Canada) were housed individually at a temperature of 22-24° C. with a 12-hour light/dark cycle. They were provided with free access to regular rodent chow (0.4% Na^+) and tap water. All procedures were performed in accordance with the guidelines of the Canadian Council on Animal Care.
Anti-hypertensive Treatments. Rats were randomly divided into three groups. The control animals received only tap water. One treatment group received the ACE inhibitor enalapril maleate (30 mg/kg per day), and the other received the vasodilator hydralazine (45 mg/kg per day) (enalapril and hydralazine supplied by Sigma Chemical Co., St. Louis, Mo.) administered orally through their drinking water for 2 weeks. Aspartame (100 mg/1) was added to the hydralazine solution to improve the taste. Drug concentrations were calculated based on previously established drinking patterns^(24). Several times throughout the 2-week treatment period, the drug concentrations in the drinking water were adjusted to account for fluctuations in animal weight or fluid intake. Erectile response was measured in all groups with the administration of apomorphine (APO). APO-testing was performed three times before treatment and twice between days 7-14 of treatment.
A second two-week anti-hypertensive treatment was performed at 49 weeks of age. Rather than trying to prevent erectile dysfunction, this treatment attempted to restore erectile function. The same drugs and procedures were used as outlined above. APO-testing was performed twice between days 7-14 of treatment and twice off treatment.
Rats were randomized into four new treatment groups. The previously untreated rats received enalapril (30 mg/kg per day) or losartan (30 mg/kg per day) in their drinking water and were fed a low sodium diet (0.04% Na^+). After 6 days of treatment, a daily 4-hour access to salt containing regular chow (0.4% Na^+) was permitted to allow for a depressor response of 50% of the pre-treatment levels^(25). The treated rats received enalapril (30 mg/kg per day) in their drinking water and a low sodium diet (0.04% Na^+) or a triple therapy treatment^(24) combining hydralazine (45 mg/kg per day), a calcium channel blocker, nifedipine (200 mg per day) and a diuretic, hydrochlorothiazide (100 mg/l) (all drugs supplied by Sigma Chemical Co., St. Louis, Mo.). Hydralazine and hydrochlorothiazide were administered in the drinking water and nifedipine was mixed into ground regular rodent chow during the 12 h dark cycle. Aspartame (100 mg/l) was added to the hydralazine solution to improve the taste. APO-testing was performed twice between days 7-14 of treatment and twice off treatment.
Testosterone was prepared from a stock solution of testosterone propionate (Taro Pharmaceuticals, Bramalea, Ontario) diluted in peanut oil. Each rat received a single dose of testosterone (480 μg/kg) administered via subcutaneous injection in the neck. Testosterone was administered 36 hours prior to APO-testing.
Assessment of Erectile Response. Erectile response was assessed using the well-established bio-assay rat model developed by Heaton et al.^(17). The rats were placed in separate, wire hanging-wall cages with clear Plexiglas bottoms in a dark, quiet room and allowed to acclimate for 20 minutes. Each rat received apomorphine (80 μg/kg) in saline ([…] apomorphine plus 100 μg/ml ascorbic acid) via subcutaneous injection (1 ml/kg) in the loose skin of the neck or back. Erections and yawns were counted at 5-minute intervals over a 30-minute period via videomonitoring in an adjacent room.

female Wistar rats = test: APO-induced genital vasocongestive arousal (GVA) response bio-assay, intact rats; conditions: for average number of GVA responses: APO 80 ug/kg s.c.; for average number of GVA responses / yawning responses: 30 minutes; for yawning responses: intact animals
[2] = test system: ovariectomized (OVX) Wistar rats; test: APO-induced responses in ovariectomized (OVX) rats; format: in vivo, rat
Protocol: A modification of a previous protocol using APO (80 ug/kg in 100 ug/ml ascorbic acid in water, s.c.) was used^(17). […] Rats were placed in hanging cages with bottoms constructed of Plexiglas®, in a dark, quiet room where they were allowed to acclimate for 10 minutes before the testing period. Following APO administration, the number of genital responses and associated yawning responses were recorded for a 30 minute period via a video monitoring system in an adjacent room.
APO-induced responses were determined in ovariectomized (OVX)^(22) rats to determine the effect of reduced levels of endogenous hormones. In brief, animals were anaesthetized with isoflurane gas delivered via a Bain rebreathing system. A small midline dorsal skin incision was made approximately half-way between the middle of the back and the base of the tail. Both ovaries were removed by ligating and severing the junction between the fallopian tube and uterine hom. Post-operative analgesia (buprenorphine, Buprenex™, 0.05 mg/kg) and antibiotics (0.1 ml/100 g body wt., Tribrissen™ 24%, Schering Canada Inc.) were administered daily for 5 days. Animals were given at least one week to recover before the onset of experimentation.

[3] = test system: aged (18 months) female Wistar rats; test: Recovery of APO-induced GVA response in aged female rats with short-term anti-hypertensive treatment; format: in vivo, rat
Protocol: Aged (18 months) and control (3-4 months) female Wistar rats were assessed for APO-induced GVA response as described above (Example 1). Aged females were then treated with enalapril (30 mg kg^−1day^−1, orally)+low salt diet for 2 weeks. Prior to, during, and after treatment, apomorphine (80 ug kg^−1, s.c.) was used to elicit GVA responses. The frequency of GVA responses per rat for a 30-minute period was determined as described above (Example 1).

[4] = distribution over the 30-minute period

CN1CCc2cccc3c2[C@H]1Cc1ccc(O)c(O)c1-3 [APO, apomorphine]
APO-induced erectile responses with age ([1]; SHR 30-68 weeks, APO 80 μg/kg s.c.): progressive loss of response | share of total GVA responses occurring within the first 20 minutes (female Wistar rats; 30-minute period): 80% | genital grooming responses, dose-response assessment (female Wistar rats; APO 40, 80 & 120 ug/kg, result for 80 ug/kg, preliminary studies): greatest number of genital grooming responses | non-GVA responses, APO vs control tested animals (female Wistar rats; any stage of the estrous cycle): no significant difference | average number of GVA responses (female Wistar rats; diestrus 1): 1.13±1.36 | yawning responses (female Wistar rats; diestrus 1): 2±2.50 | average number of GVA responses (female Wistar rats; diestrus II): 0.88±0.85 | time of peak of APO-induced GVA responses (female Wistar rats; [4]): 5 to 10 min | time of peak of APO-induced yawning responses (female Wistar rats; [4]): 15 to 20 min | average number of GVA responses (female Wistar rats; estrus): 1.75±1.67 | average number of GVA responses (female Wistar rats; metestrus): 1.5±1.20 | yawning responses (female Wistar rats; metestrus): 3.63±3.96 | average number of GVA responses (female Wistar rats; proestrus, 8 rats): 1.5±1.06 | reduction of GVA responses in OVX rats relative to intact animals ([2]; 8 OVX Wistar rats, 30 minute period): about 80% | non-GVA responses, OVX vs intact animals ([2]; APO administration): no significant difference | average GVA responses in control (3-4 months) female rats ([3]; APO 80 ug/kg s.c., 30 minute period): about 2 | APO-induced GVA response rate in aged females ([3]; pre-treatment): 40% | GVA responses in aged female rats relative to controls ([3]; prior to anti-hypertensive treatment, APO 80 ug/kg s.c.): significantly fewer

CCC(=O)O[C@H]1CC[C@H]2[C@@H]3CCC4=CC(=O)CC[C@]4(C)[C@H]3CC[C@]12C [Testosterone, testosterone propionate]
effect of testosterone on erectile response ([1]; 66 weeks of age): did not increase erectile response | effect of testosterone on number of yawns ([1]; 66 weeks of age): significantly increase | effect of testosterone supplementation on number of erections ([1]; control rats and rats treated with hydralazine, 47 and 66 weeks of age, 480 μg/kg s.c.): did not significantly affect | increase in number of erections with testosterone ([1]; enalapril treated rats, after the first testosterone treatment): 2.5 fold

CCOC(=O)[C@H](CCc1ccccc1)N[C@@H](C)C(=O)N1CCC[C@H]1C(=O)O [enalapril]
average number of erections two weeks after treatment was withdrawn ([1]; second treatment at 49 weeks): significantly higher level than the pre treatment values | increase in average number of erections on treatment vs pre treatment ([1]; second treatment at 49 weeks, not significant): > 2 fold | number of erections relative to pre-treatment [1]: significant increases | increase in number of erections two weeks off treatment [1]: 2 fold | frequency of APO-induced GVA responses off treatment relative to the treatment period ([3]; 1 & 3 week off-treatment, p<0.05): persistent and significant increase | persistence of increased sexual responsiveness to APO after cessation of treatment ([3]; compared to pre-treatment levels): persisted for at least ten weeks | overall APO-induced GVA response rate in aged females ([3]; during anti-hypertensive treatment): 56% | APO-induced GVA responses during anti-hypertensive treatment ([3]; enalapril 30 mg/kg/day orally + low salt diet, 2 weeks, p=0.065): trend of increasing | overall APO-induced GVA response rate in aged females ([3]; off-treatment): 93% | partial behavioural responses ([3]; persisted after cessation of the treatment, FIG. 2): increase in the number of partial behavioural responses | APO-induced GVA response of aged rats after two weeks of daily treatment ([3]; summary of pilot study): increased to levels of young rats

CCCCc1nc(Cl)c(CO)n1Cc1ccc(-c2ccccc2-c2nn[nH]n2)cc1 [losartan]
number of erections relative to pre-treatment [1]: significant increases | increase in number of erections two weeks off treatment [1]: 2 fold

— patent US20040138291A1, “Treatment of sexual dysfunction” (priority 2002, published 2004)
